Test results: ChEMBL document CHEMBL1201862, “PubChem BioAssay data set” (2004)
Calls of active or inactive are those of the source.

Legend:
Protein Wnt-3a = Protein Wnt-3a (Mus musculus, UniProt P27467); assay: Wnt3a-driven reporter signaling inhibition, dose response, selectivity assay for Gli-SUFU antagonist project, Wnt-LIGHT cells, luminescence (AID 651570); format: functional; settings: read-out: IC50_Mean;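 also: Wnt-LIGHT reporter cells stimulated with conditioned medium from Wnt3a-producing cells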
Sequence of Protein Wnt-3a (P27467 whole entry): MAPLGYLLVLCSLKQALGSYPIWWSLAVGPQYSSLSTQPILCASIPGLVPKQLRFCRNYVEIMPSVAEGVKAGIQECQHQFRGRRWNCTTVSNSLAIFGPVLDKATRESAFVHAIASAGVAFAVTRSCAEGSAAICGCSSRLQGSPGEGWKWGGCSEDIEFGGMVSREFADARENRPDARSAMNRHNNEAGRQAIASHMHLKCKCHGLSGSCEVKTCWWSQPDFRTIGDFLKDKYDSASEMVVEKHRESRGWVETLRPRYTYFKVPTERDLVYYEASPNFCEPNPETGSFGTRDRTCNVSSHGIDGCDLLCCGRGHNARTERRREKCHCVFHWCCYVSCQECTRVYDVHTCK

Cytochrome P450 3A4 [1] = molecular target: T1, Cytochrome P450 3A4 (Homo sapiens, UniProt P08684);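 also: CYP3A4 tested as one member of a cytochrome P450 panel screen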
T1 sequence (P08684 whole entry): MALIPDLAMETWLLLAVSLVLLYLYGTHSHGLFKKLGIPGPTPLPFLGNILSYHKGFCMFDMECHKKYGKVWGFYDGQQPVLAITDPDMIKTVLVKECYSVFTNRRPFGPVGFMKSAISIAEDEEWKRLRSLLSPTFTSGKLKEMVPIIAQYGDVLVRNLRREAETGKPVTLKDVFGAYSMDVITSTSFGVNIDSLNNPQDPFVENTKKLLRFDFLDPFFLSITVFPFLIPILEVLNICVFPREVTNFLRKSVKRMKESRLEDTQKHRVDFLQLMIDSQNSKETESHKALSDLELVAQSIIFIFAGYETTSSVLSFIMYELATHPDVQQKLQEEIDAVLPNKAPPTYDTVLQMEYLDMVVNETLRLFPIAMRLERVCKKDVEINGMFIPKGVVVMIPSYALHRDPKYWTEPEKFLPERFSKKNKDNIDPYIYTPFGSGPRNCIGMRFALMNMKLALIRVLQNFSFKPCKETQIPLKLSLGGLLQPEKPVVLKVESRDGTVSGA

[2] = molecular target: Peroxisome proliferator-activated receptor gamma/Nuclear receptor coactivator 3 (Homo sapiens, UniProt P37231); assay: TR-FRET dose response biochemical High Throughput Screening assay for agonists of the steroid receptor coactivator 3 (SRC-3) recruitment by the peroxisome proliferator-activated receptor gamma (PPAR gamma): non-selective agonists. [Related pubchem assays: 1301 (Confirmation screen.), 1048 (Primary screen.)]; format: functional
[3] = molecular target: Peroxisome proliferator-activated receptor gamma/Nuclear receptor coactivator 2 (Homo sapiens, UniProt P37231); assay: TR-FRET dose response biochemical High Throughput Screening assay for agonists of the steroid receptor coactivator 2 (SRC-2) recruitment by the peroxisome proliferator-activated receptor gamma (PPAR gamma): non-selective agonists. [Related pubchem assays: 1297, 1032 ]; format: functional
Sequence of Peroxisome proliferator-activated receptor gamma/Nuclear receptor coactivator 2 (P37231 whole entry): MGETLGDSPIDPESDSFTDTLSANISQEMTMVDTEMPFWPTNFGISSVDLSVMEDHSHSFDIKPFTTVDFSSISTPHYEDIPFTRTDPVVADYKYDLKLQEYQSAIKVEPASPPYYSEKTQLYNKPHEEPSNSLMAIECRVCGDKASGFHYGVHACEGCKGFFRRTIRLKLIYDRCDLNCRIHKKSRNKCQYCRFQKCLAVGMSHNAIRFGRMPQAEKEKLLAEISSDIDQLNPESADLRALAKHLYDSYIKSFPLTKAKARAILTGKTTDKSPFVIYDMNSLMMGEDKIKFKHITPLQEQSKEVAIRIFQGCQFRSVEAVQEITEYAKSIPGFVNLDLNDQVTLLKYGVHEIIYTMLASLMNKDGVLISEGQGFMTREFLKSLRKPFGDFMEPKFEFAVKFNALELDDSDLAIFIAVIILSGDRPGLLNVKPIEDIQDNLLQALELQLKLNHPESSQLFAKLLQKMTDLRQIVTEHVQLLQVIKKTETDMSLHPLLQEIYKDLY
Sequence of Peroxisome proliferator-activated receptor gamma/Nuclear receptor coactivator 2 (Q15596 whole entry, further chain): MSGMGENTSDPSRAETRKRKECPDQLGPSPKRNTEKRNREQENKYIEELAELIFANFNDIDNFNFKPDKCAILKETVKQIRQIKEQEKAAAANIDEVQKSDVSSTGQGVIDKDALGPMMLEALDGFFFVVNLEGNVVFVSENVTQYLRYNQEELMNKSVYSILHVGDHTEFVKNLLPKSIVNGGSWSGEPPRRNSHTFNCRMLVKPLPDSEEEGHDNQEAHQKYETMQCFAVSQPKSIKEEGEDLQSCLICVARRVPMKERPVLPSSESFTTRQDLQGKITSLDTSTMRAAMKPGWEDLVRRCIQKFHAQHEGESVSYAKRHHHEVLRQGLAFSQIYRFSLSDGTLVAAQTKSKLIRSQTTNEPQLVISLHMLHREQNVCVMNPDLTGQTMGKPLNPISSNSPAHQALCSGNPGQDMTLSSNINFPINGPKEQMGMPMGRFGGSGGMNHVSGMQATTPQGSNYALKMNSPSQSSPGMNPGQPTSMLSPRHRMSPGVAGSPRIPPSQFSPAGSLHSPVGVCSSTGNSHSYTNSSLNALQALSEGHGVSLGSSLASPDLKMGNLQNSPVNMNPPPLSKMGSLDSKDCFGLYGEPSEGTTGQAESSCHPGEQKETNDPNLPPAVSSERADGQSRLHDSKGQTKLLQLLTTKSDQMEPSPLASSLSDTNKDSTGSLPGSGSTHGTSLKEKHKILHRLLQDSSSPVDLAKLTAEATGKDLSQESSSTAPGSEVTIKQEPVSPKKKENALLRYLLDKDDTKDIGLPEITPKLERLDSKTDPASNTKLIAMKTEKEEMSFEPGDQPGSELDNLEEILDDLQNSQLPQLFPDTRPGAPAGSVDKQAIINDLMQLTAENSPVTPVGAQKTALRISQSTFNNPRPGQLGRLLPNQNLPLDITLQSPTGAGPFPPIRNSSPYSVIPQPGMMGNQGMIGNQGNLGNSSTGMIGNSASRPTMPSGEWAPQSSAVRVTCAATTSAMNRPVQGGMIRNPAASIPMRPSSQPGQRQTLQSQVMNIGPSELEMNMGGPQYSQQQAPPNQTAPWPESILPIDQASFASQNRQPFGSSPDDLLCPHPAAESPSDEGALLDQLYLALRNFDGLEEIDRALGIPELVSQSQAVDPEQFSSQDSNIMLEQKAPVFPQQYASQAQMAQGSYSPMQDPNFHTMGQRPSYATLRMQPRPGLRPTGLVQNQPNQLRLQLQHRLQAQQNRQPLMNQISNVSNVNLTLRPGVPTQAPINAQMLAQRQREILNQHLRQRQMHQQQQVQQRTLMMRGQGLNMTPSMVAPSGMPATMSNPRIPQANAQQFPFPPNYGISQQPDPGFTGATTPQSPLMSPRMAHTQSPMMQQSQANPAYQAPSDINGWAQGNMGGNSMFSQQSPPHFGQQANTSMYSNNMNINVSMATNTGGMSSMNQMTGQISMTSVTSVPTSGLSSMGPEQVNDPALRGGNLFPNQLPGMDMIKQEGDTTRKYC

[4] = molecular target: Peroxisome proliferator-activated receptor gamma/Nuclear receptor coactivator 1 (Homo sapiens, UniProt P37231); assay: TR-FRET dose response biochemical High Throughput Screening assay for agonists of the steroid receptor coactivator 1 (SRC-1) recruitment by the peroxisome proliferator-activated receptor gamma (PPAR gamma): non-selective agonists. [Related pubchem assays (depositor defined):AID1300, AID1808, AID504735, AID631]; format: protein assay
Sequence of Peroxisome proliferator-activated receptor gamma/Nuclear receptor coactivator 1 (P37231 whole entry): as the sequence (P37231 whole entry) above
Sequence of Peroxisome proliferator-activated receptor gamma/Nuclear receptor coactivator 1 (Q15788 whole entry, further chain): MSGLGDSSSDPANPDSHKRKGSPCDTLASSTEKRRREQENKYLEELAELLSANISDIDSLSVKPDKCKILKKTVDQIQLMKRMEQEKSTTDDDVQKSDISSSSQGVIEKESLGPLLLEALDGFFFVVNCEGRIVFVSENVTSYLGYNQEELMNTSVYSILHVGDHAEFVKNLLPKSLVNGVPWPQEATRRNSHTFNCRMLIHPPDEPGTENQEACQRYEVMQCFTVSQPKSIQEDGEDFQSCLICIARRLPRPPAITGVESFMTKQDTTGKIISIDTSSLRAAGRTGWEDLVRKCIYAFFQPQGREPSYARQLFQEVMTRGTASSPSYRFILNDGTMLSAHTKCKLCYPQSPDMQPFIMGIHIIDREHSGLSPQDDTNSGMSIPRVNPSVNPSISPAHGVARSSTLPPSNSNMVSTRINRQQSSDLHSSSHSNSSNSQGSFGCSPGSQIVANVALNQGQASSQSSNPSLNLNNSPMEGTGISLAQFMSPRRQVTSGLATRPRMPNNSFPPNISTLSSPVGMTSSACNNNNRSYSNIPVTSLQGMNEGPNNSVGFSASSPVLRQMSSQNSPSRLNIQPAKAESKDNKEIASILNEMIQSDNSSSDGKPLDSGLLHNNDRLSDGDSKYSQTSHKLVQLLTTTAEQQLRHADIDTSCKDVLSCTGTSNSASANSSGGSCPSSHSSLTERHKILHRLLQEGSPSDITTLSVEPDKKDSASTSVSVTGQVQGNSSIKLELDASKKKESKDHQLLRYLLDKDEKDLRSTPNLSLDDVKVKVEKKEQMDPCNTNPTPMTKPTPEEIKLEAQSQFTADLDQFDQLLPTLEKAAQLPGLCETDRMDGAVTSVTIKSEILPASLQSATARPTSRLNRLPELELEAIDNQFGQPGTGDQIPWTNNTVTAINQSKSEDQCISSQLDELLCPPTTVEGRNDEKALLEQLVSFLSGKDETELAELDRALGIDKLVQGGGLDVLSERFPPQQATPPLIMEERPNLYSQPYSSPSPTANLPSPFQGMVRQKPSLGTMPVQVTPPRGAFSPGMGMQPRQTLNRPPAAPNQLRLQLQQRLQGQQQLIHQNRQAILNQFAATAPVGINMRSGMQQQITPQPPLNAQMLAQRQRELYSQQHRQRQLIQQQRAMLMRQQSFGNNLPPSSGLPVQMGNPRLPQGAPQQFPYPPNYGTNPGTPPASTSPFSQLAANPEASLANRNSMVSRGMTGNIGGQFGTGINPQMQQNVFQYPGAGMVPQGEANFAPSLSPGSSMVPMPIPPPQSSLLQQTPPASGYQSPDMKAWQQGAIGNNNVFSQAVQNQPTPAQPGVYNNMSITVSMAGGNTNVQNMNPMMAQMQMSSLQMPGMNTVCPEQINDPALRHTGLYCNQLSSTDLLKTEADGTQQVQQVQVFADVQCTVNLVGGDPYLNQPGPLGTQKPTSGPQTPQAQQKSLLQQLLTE

fMet-Leu-Phe receptor = molecular target: T2, fMet-Leu-Phe receptor (Homo sapiens, UniProt P21462); assay: FPR ligands, dose response (AID 519); format: functional
T2 sequence (P21462 whole entry): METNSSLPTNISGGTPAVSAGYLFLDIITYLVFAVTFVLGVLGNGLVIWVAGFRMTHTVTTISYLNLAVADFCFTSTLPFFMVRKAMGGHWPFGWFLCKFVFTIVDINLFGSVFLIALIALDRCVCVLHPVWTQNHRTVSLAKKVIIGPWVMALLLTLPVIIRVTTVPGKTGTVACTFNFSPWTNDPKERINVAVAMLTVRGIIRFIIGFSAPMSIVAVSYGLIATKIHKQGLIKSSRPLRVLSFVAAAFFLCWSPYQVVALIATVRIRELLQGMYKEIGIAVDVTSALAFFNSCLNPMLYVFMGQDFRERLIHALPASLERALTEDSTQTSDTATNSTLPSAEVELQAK

cells = format: functional
BJ [5] = assay: cytotoxicity toward BJ-TERT fibroblasts, dose response, cell-based, RAS-independent, luminescence (AID 1933); format: functional; settings: Homo sapiens
BJ [6] = assay: cytotoxicity toward BJ-TERT-LT-ST fibroblasts, dose response, cell-based, RAS-independent, luminescence (AID 1935); format: functional; settings: Homo sapiens;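 also: BJ fibroblasts immortalized with TERT plus LT and ST oncogenes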
BJ [7] = assay: cells; format: functional, cell-based; settings: Homo sapiens
[8] = cytotoxicity toward DRD oncogenic fibroblasts, dose response, cell-based, non-viral oncogenic, luminescence (AID 1934); format: functional; settings: Homo sapiens
BJ [9] = assay: cytotoxicity toward Ras-transformed BJeLR fibroblasts, dose response, cell-based, alamar blue fluorescence, cherrypicked samples (AID 2631); format: functional; settings: Homo sapiens;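 also: confirmatory dose-response assay in RAS-dependent BJ fibroblasts engineered with TERT, LT and ST, with cytotoxicity read by fluorescence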
[10] = molecular target: Glyceraldehyde-3-phosphate dehydrogenase (Homo sapiens, UniProt P04406)
[11] = molecular target: T3, Alkaline phosphatase, tissue-nonspecific isozyme (Homo sapiens, UniProt P05186); assay: human TNAP enzyme inhibitors, SAR follow-up, biochemical, luminescent, dose response (AID 1056)
T3 sequence (P05186 whole entry): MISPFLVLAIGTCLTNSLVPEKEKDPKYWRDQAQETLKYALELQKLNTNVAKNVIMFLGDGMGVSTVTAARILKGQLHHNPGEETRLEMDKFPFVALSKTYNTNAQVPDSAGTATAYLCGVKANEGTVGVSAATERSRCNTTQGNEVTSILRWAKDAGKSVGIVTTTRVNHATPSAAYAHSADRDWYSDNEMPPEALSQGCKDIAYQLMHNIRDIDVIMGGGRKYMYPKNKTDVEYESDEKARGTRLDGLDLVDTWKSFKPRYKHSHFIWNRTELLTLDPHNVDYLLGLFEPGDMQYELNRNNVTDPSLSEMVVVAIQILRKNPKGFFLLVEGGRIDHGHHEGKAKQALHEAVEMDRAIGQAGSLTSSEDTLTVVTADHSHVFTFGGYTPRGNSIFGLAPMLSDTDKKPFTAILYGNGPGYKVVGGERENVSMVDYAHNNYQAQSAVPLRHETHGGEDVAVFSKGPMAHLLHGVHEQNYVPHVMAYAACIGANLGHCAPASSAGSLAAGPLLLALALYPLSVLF

Cytochrome P450 3A4 [12] = molecular target: T1, Cytochrome P450 3A4; remark: listed apart in the source
Phosphomannomutase 2 = molecular target: T4, Phosphomannomutase 2 (Homo sapiens, UniProt O15305); assay: Counter screen SAR assay for PMM2 inhibitors via a fluorescence intensity assay. [Related pubchem assays (depositor defined):AID1545, AID1574]
T4 sequence (O15305 whole entry): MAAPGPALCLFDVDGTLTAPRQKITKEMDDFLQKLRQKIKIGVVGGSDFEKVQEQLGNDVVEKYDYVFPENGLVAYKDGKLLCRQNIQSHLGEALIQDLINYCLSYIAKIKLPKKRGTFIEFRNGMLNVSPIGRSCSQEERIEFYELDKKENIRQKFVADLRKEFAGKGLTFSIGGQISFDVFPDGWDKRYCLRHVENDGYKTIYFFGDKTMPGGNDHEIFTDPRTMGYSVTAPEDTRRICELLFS

[13] = molecular target: T5, Mannose-6-phosphate isomerase (Homo sapiens, UniProt P34949); assay: PMI enzyme inhibitors, confirmation, biochemical, fluorescence intensity (AID 1535)
T5 sequence (P34949 whole entry): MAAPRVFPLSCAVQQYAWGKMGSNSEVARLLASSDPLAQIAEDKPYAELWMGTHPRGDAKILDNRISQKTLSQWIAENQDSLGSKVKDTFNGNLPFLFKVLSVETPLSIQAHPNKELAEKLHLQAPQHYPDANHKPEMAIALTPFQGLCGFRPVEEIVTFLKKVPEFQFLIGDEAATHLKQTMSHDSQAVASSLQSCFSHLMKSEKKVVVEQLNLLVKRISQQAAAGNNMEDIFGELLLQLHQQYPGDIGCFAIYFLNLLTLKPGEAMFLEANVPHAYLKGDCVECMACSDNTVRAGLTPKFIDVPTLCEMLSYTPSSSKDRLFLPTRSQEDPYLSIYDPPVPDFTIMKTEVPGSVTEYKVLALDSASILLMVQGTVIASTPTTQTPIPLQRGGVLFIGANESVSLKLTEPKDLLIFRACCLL

Cytochrome P450 2C9 = Cytochrome P450 2C9 (Homo sapiens, UniProt P11712)
Cytochrome P450 2C19 = Cytochrome P450 2C19 (Homo sapiens, UniProt P33261); assay: Cytochrome panel assay with activity outcomes. Panel member name: p450-cyp2c19 Compounds with AC50 equal or less than 10 uM are considered active; format: functional
Cytochrome P450 1A2 = molecular target: T6, Cytochrome P450 1A2 (Homo sapiens, UniProt P05177);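 also: PubChem cytochrome P450 panel assay, CYP1A2 panel member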
T6 sequence (P05177 whole entry): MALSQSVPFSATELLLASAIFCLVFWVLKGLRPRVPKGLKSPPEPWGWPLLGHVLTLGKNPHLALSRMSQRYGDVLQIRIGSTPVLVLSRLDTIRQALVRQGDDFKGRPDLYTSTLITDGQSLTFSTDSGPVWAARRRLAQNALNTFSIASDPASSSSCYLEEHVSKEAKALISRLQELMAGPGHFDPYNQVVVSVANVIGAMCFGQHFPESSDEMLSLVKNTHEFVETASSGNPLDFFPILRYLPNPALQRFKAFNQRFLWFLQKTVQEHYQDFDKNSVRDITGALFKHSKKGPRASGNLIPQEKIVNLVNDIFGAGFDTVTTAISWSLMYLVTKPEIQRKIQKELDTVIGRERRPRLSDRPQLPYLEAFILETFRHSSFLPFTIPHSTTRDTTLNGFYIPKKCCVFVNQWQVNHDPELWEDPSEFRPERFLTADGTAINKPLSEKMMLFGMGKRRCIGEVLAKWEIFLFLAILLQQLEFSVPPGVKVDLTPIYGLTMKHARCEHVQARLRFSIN

Cytochrome P450 2D6 = Cytochrome P450 2D6 (Homo sapiens, UniProt P10635);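 also: CYP2D6 member of a cytochrome P450 panel assay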
[14] = system: Streptococcus sp. 'group A'; assay: growth inhibition of control SK(-) GAS strain, dose response, counter-screen for streptokinase expression inhibitor project, luminescence, kanamycin, BacTiterGlo, confirmation (AID 1900); format: functional, organism-based
Streptokinase A = molecular target: T7, Streptokinase A (Streptococcus pyogenes serotype M1, UniProt P10520); assay: S. pyogenes streptokinase expression inhibitors, potency, dose response, plasminogen activation absorbance, OD405 (AID 1914); format: functional, Streptococcus pyogenes M1 GAS;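 also: secreted streptokinase activity via plasminogen activation per viability signal from cell pellet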
T7 sequence (P10520 whole entry): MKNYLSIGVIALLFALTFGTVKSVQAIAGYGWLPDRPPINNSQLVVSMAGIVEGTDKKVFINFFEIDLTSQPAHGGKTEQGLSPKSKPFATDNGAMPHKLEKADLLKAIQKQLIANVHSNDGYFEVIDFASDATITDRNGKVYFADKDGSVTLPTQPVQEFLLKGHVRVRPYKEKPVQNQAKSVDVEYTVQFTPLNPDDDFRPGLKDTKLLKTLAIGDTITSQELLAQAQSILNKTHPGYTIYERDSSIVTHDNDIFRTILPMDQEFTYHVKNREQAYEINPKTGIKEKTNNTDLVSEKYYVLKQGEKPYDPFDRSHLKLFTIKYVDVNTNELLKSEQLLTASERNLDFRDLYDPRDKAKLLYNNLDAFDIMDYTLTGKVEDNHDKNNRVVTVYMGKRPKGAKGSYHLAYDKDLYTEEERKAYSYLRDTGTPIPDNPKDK

Streptococcus = assay: Group A Streptococcus viability loss, dose response, counter-screen for streptokinase expression inhibitor project, luminescence, BacTiterGlo (AID 1915); format: functional, organism-based;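 also: potency for reduction of bacterial viability or growth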

CC(C)C[C@H]1CN=C(N(C)C)N1CCCCc1ccccc1
IC50 (Protein Wnt-3a): 11.7 µM (active)

O=C(Nc1ccccc1)N1CCC2(CC1)CCN(C(=O)Oc1ccccc1)CC2
AC50 (Cytochrome P450 3A4 [1]): inconclusive

COC(=O)c1c(C)[nH]c(C(=O)C(C)Sc2nnc(-c3cc(OC)c(OC)c(OC)c3)o2)c1C (centres undefined)
EC50 [2]: > 79.4 µM (not active)
EC50 [3]: > 79.4 µM (not active)
EC50 [4]: > 79.4 µM (inactive)

CCOC(=O)N1CCN(C(=O)c2ccc(CSc3ccc(Cl)cc3)cc2)CC1
IC50 (Protein Wnt-3a): 15.6 µM (active)

CCOc1cccc(C(=O)C2=C(O)C(=O)N(CCOC)C2c2ccc(C)o2)c1 (centres undefined)
Ki (fMet-Leu-Phe receptor): 13.5 µM (active)

COC(=O)COc1ccc2c(=O)c(Oc3ccccc3)c(C)oc2c1
Ki (fMet-Leu-Phe receptor): > 66.7 µM (inactive)
IC50 (cells): 2.94 µM (active)

CC(=O)Nc1ccc(/C=N/Nc2nc3ccccc3[nH]2)cc1
EC50 (BJ [5]): > 150 µM (not active)
EC50 (BJ [6]): > 150 µM (inconclusive)
EC50 (BJ [7]): 5.82 µM (active)
EC50 [8]: > 150 µM (inconclusive)
EC50 (BJ [9]): > 133 µM (inactive)

NC(=O)c1cn(S(=O)(=O)c2ccc3ccccc3c2)c2ccccc12
IC50 [10]: > 100 µM (not active)
IC50 [11]: > 100 µM (inactive)

COc1cc(OC)c(C2=NOC(C(=O)NCc3cccs3)C2)cc1Cl (centres undefined)
EC50 (BJ [5]): > 150 µM (not active)
EC50 (BJ [6]): 32 µM (active)
EC50 (BJ [7]): 63.7 µM (active)
EC50 [8]: 17.7 µM (inconclusive)
EC50 (BJ [9]): 108 µM (active)

CCS(=O)(=O)N(C)[C@@H]1c2cc(C#N)ccc2OC(C)(C)[C@H]1O
AC50 (Cytochrome P450 3A4 [1]): 15.8 µM (inconclusive)
AC50 (Cytochrome P450 3A4 [12]): 15.8 µM (inconclusive)

COc1ccc(NC(=O)CSc2c3c(nc4ccccc24)CCCC3)c(OC)c1
EC50 [2]: > 79.4 µM (not active)
EC50 [3]: 35.4 µM (not active)
EC50 [4]: > 79.4 µM (inactive)

COc1cc(N=c2ssnc2Cl)cc(OC)c1
IC50 (Phosphomannomutase 2): > 100 µM (inactive)
IC50 [13]: 17.2 µM (active)

CC(=O)c1sc(NC(=O)C(C)C)nc1C
EC50 [2]: > 79.4 µM (not active)
EC50 [3]: > 26.5 µM (not active)
AC50 (Cytochrome P450 2C9): 39.8 µM (inconclusive)
AC50 (Cytochrome P450 2C19): inconclusive
EC50 [4]: > 79.4 µM (inactive)

CC(C)(C)c1ccc(-c2c(C#N)c(N)nc3c2CCCC3)s1
AC50 (Cytochrome P450 3A4 [1]): inconclusive
AC50 (Cytochrome P450 2C9): 7.08 µM (inconclusive)

CN1CCN(c2ncc3nc(-c4ccc(Cl)cc4)c(=O)n(Cc4ccc(F)cc4)c3n2)CC1
AC50 (Cytochrome P450 3A4 [1]): inconclusive
AC50 (Cytochrome P450 1A2): 31.6 µM (inconclusive)
AC50 (Cytochrome P450 2D6): 39.8 µM (inconclusive)

Cc1nnc(/N=c2\ssnc2Cl)o1
IC50 (Phosphomannomutase 2): > 100 µM (inactive)
IC50 [13]: 1.07 µM (active)

COc1cccc(-c2cc(C(=O)O)[nH]n2)c1
IC50 [10]: > 100 µM (not active)
IC50 [11]: > 100 µM (inactive)

O=C(N[C@@H]1C/C=C\C[C@@H](CC(=O)N(CCO)Cc2ccccc2)C(=O)NCCOC1=O)OCC1c2ccccc2-c2ccccc21
IC50 (Protein Wnt-3a): 24.2 µM (inactive)

O=C(c1cnc(-c2ccccc2)s1)c1ccc(Cl)cc1Cl
AC50 (Cytochrome P450 3A4 [1]): inconclusive
EC50 [14]: 16.2 µM (active)
AC50 (Cytochrome P450 2D6): 22.4 µM (inconclusive)
EC50 (Streptokinase A): 33.7 µM (active)
EC50 (Streptococcus): > 150 µM (not active)

O=C(Cn1cnnc1)c1ccc(O)c(O)c1
IC50 [11]: > 100 µM (inactive)
